Measurements from US20160067674A1, “LIGANDS AND METHODS FOR ISOLATING OR REMOVING PROTEINS” (PreviPharma AG, priority 2014, published 2016).
Starred links: 1 amine or outer side, 2 acyl side, 3 side chain; linkers in the order of their positions; H or OH if unused. No end group written: not given here. *: point of attachment. code X = linker with the sequence GSGSGSG, O=C(CNC(=O)[C@H](CO)NC(=O)CN[*:1])N[C@@H](CO)C(=O)NCC(=O)N[C@@H](CO)C(=O)NCC(=O)[*:2]; Biotin = O=C1N[C@H]2[C@H](CS[C@H]2CCCCC(=O)*)N1

What was measured:
[1] = test system: factor V or factor VIII; assay: Peptide array of Protein C sequence, binding affinity towards factor V or factor VIII; details: compared with sequences i) to iii)
Text: (§1) In this manner, the sequences of Protein A, Protein G, Protein H and FcRn were investigated for peptides binding to IgG. In addition, the sequence of Protein C was investigated for peptides binding to factor V and factor VIII.

[2] = target: factor V (Homo sapiens, UniProt P12259); assay: Peptide array of Protein C sequence for peptides binding to factor V
Sequence of factor V (P12259 29-2224): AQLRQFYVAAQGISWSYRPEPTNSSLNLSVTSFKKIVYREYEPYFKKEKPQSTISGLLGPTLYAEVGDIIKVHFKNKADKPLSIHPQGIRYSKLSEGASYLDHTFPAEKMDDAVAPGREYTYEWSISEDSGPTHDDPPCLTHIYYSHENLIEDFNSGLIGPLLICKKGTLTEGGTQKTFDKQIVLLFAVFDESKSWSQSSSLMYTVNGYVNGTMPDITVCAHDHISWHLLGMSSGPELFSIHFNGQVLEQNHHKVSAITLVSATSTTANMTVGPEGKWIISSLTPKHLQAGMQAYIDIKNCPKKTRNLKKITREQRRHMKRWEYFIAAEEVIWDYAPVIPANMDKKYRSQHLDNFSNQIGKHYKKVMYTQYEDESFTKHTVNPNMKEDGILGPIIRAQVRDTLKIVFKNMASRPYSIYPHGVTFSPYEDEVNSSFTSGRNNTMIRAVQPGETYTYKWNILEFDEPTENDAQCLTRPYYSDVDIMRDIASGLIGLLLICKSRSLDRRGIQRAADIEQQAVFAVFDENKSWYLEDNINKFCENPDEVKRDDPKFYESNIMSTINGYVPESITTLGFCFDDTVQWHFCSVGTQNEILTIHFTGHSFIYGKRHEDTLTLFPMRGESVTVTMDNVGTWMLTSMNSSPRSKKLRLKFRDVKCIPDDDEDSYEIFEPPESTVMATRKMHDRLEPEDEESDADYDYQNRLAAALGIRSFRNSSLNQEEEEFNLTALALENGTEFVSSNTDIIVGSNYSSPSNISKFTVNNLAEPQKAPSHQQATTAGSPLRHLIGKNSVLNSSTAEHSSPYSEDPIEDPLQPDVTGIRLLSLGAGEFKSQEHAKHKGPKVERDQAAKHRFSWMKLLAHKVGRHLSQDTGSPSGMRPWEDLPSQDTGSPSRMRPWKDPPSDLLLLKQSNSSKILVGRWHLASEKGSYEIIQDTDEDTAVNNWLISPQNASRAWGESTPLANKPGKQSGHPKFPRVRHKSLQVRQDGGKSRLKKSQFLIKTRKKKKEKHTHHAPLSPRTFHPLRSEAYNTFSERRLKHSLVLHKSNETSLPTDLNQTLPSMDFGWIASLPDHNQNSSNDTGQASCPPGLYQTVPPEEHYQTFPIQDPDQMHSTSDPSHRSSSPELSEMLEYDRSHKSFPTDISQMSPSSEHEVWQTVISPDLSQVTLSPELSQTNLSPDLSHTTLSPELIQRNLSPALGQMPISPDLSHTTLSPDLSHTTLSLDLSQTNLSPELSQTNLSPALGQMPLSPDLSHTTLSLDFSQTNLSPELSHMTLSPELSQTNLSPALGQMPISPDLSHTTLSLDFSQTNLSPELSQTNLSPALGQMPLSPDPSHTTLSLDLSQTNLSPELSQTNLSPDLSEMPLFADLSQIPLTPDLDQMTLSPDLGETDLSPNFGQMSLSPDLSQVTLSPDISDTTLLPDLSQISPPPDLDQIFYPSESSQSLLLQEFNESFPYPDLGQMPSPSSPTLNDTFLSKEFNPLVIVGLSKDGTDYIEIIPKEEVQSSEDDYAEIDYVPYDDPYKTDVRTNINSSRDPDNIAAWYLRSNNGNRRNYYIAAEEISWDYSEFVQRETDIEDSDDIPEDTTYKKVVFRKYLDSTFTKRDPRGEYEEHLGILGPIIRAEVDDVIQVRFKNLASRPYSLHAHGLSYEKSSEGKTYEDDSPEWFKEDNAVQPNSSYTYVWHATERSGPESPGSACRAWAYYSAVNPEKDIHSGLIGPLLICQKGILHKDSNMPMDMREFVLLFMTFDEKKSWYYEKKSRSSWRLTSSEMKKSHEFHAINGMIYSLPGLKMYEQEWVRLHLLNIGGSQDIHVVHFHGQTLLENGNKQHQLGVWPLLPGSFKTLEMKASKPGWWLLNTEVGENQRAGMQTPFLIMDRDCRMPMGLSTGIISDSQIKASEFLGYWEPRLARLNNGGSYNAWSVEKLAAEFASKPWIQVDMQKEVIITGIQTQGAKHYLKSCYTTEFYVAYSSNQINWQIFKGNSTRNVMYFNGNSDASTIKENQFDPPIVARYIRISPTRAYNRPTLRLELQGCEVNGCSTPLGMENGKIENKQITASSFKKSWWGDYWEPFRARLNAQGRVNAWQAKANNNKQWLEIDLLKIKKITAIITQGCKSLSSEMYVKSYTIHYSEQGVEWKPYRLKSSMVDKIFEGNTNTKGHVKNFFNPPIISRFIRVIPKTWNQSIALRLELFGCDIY
Text: as §1

[3] = target: factor VIII (Homo sapiens, UniProt P00451); assay: Peptide array of Protein C sequence for peptides binding to factor VIII
Sequence of factor VIII (P00451 20-2351, species assumed): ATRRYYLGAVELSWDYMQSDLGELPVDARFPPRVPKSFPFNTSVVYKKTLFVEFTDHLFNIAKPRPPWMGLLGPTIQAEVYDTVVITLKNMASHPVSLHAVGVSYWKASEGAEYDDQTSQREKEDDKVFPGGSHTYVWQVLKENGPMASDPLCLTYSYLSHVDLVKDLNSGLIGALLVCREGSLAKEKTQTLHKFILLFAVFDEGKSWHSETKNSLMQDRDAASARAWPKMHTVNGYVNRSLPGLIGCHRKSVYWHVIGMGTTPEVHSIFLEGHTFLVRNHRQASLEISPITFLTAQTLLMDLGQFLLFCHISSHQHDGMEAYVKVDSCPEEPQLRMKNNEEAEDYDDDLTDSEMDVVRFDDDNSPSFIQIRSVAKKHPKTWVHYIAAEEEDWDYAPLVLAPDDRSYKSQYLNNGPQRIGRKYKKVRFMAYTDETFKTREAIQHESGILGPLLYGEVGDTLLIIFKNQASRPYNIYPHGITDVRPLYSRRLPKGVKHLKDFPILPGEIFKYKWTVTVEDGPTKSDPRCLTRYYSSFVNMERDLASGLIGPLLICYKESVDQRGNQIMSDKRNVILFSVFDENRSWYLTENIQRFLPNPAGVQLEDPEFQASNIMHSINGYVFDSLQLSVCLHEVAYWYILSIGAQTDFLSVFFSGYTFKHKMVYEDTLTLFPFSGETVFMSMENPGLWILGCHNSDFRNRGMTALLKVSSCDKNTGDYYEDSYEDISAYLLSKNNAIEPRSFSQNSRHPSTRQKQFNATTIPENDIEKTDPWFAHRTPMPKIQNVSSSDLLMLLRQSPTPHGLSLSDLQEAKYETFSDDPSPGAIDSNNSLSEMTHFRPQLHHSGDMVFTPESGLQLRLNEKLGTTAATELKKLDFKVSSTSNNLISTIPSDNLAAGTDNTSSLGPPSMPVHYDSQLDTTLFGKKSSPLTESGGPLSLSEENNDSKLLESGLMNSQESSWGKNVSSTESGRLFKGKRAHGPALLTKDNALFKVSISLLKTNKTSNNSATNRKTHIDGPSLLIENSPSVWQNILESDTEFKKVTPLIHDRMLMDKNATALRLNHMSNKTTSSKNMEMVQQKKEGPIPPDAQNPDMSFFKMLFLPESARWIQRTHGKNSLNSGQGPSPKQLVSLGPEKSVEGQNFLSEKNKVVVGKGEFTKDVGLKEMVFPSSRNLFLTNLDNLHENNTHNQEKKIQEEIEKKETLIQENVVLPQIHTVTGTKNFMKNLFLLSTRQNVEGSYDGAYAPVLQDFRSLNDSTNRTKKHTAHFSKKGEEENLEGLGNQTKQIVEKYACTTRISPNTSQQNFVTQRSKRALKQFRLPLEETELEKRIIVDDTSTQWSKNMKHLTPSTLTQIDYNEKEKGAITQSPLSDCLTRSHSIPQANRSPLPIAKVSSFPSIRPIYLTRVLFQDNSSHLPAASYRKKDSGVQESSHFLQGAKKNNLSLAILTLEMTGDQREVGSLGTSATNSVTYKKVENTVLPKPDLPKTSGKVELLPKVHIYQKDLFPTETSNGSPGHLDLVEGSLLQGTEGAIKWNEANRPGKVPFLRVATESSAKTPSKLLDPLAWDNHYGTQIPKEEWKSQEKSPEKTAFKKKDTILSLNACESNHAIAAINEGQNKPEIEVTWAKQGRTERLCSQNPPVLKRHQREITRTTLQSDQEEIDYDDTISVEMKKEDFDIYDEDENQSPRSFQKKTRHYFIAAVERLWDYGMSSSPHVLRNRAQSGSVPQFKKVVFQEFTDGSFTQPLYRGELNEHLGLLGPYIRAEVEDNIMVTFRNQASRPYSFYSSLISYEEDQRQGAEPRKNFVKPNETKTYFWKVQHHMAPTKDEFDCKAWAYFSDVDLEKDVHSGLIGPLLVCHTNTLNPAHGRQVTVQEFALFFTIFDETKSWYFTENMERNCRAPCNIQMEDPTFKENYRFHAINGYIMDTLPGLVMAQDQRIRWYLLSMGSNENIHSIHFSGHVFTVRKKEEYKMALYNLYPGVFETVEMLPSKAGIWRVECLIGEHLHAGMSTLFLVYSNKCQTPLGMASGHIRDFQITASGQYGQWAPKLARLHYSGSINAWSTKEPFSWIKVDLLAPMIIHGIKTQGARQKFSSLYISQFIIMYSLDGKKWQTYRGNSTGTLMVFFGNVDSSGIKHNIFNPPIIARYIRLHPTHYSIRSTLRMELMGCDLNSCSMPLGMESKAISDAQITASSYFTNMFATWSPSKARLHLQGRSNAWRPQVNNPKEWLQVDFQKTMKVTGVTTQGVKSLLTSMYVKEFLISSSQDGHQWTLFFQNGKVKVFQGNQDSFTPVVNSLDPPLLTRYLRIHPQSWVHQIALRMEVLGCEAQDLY
Text: as §1

[4] = test system: IgG; assay: IgG binding to and release from peptide-modified streptavidin latex particles, bound and eluted IgG analysed by ELISA
Method: Subsequently, it was evaluated whether IgG can be bound to and released from the thus prepared modified latex. For this purpose, 10 mg of the modified latex particles were mixed with 400 μl of an IgG solution containing 0.22 mg/ml IgG. After allowing the mixture to react at room temperature for one hour, the supernatant solution was removed from the latex beads and the beads were washed to remove any non-bound IgG. The beads were then evaluated for bound IgG.
In the next step, the beads were added to 400 μl of an elution buffer (25 mM acetate buffer at pH 3.0) and shaken for one hour at room temperature. The supernatant was then removed from the beads and the beads were cleaned by washing. Both the bound and eluted IgG was an analysed by an ELISA assay.

| Substance | binding affinity towards factor V or factor VIII [1] | binding to factor V [2] | binding to factor VIII [3] | further results |
| --- | --- | --- | --- | --- |
| FVHPNYSKSTTDNDIALLH [iv)] | weaker | – | – | – |
| GDSGGPMVASFHG | – | not significantly bind | – | selectivity for factor VIII ([3]; versus factor V): high selectivity |
| HNYGVYTKVSRYL | – | – | not significantly binding | – |
| LEGYDLRRWEKWE | – | binds equally strong | binds equally strong | – |
| TGWGYHSSREKEA [v)] | weaker | – | – | – |
| bio-X-QQQLITIKQISEASRKSLSRD ({Biotin-code X}-QQQLITIKQISEASRKSLSRD) [Peptide 2, biotin-labelled peptide; bio = biotin, X = linker GSGSGSG] | – | – | – | IgG bound ([4]; 10 mg peptide-modified latex, 400 μl of 0.22 mg/ml IgG, 1 h room temperature): 55 µg; IgG Elution ([4]; 400 μl 25 mM acetate buffer pH 3.0, 1 h room temperature): 52 µg; Recovery [IgG] ([4]; eluted relative to bound IgG): 95% |
